# Test system: C57BL/6J SPF male mice
# Assay: Oral glucose tolerance test, blood sugar levels in mice
# Format: in vivo
# Settings: mean ± standard error; for Blood sugar level, 0 minutes (pretest value): fasted mice, pretest before administration, in mg/dL (unit assumed); for Blood sugar level, 30 minutes after glucose administration / Blood sugar level, 60 minutes after glucose administration / Blood sugar level, 120 minutes after glucose administration: oral 10 mL/kg (beans 400 mg/mL, sitagliptin 0.1 mg/mL) 30 minutes before oral glucose
# Experimental: The enzyme-treated azuki bean, tora bean and otebo bean prepared in Example 2 and an enzyme-treated defatted soybean prepared using the same method as Example 2 were evaluated for their actual blood sugar lowering effects in the body by using an oral glucose tolerance test. C57BL/6J SPF male mice (Clea Japan, Inc.) were used at age 10 weeks for the study animals. Twenty mice were divided into four groups of 5 mice each. In a single experiment, evaluation was carried out on four groups consisting of a control group (administered distilled water), a positive control group (administered sitagliptin) and two sample groups. Two experiments were carried out and a total of four samples were evaluated.
# Blood samples were collected from the caudal veins of the mice that had been fasting since the previous evening, and blood sugar levels were measured using a simple blood glucose measuring device (GLUTEST ACE®, Sanwa Kagaku Kenkyusho Co., Ltd.) to determine pretest values (0 minutes). 100 mg tablets of sitagliptin (MERCK) were ground with a mortar and suspended in water to a concentration of 0.1 mg/mL as sitagliptin for use as a positive control. Each of the enzyme-treated beans prepared in Example 2 (or in accordance with the method thereof) was dissolved with distilled water to a concentration of 400 mg/mL for use as an administration sample. Distilled water (control group), the sitagliptin suspension (positive control group) or the enzyme-treated bean aqueous solution (sample group) was administered orally at 10 mL/kg of body weight. A 40% aqueous glucose solution was administered orally at 5 mL/kg of body weight 30 minutes after administering the distilled water, sitagliptin suspension, or sample. Blood samples were collected from the caudal veins of the mice at, 30, 60 and 120 minutes after the oral administration of glucose, followed by measurement of these blood sugar levels in the same manner as that used for measurement of pretest values.
compound,measurement,setting,value
"N[C@@H](CC(=O)N1CCn2c(nnc2C(F)(F)F)C1)Cc1cc(F)c(F)cc1F [Sitagliptin, sitagliptin]","Blood sugar level, 0 minutes (pretest value)",Experiment 1,82.4 ± 7.0
same,"Blood sugar level, 30 minutes after glucose administration",Experiment 1,270.6 ± 24.2
same,"Blood sugar level, 60 minutes after glucose administration",Experiment 1,185.4 ± 16.2
same,"Blood sugar level, 120 minutes after glucose administration",Experiment 1,110.2 ± 12.3
same,"Blood sugar level, 0 minutes (pretest value)",Experiment 2,72.0 ± 4.7
same,"Blood sugar level, 30 minutes after glucose administration",Experiment 2,215.4 ± 8.5
same,"Blood sugar level, 60 minutes after glucose administration",Experiment 2,145.0 ± 8.9
same,"Blood sugar level, 120 minutes after glucose administration",Experiment 2,93.6 ± 8.7
